Literature values as cited in patent publication US20230248672A1, “COMPOSITIONS COMPRISING GARDOS CHANNEL ANTAGONISTS AND THEIR USES” (ADIMABIO LLC, priority 2020, published 2023).
In brackets after ≈: the same amount, converted by molar mass.

Tests used:
Gardos channel = Gardos channel (Homo sapiens, UniProt O15554)
[1] = rats, administered orally
[2] = not given; remark: listed apart in the source
[3] = not given; remark: listed apart in the source
[4] = test system: sickle cell disease patients

oral bioavailability [%] | time at which maximum concentration is attained [1] [h] | log P [2] | aqueous solubility [3] [mg/mL] | block of potassium efflux through the Gardos channel (Gardos channel; red blood cells) | Structure (SMILES) | inhibition of the Gardos channel (Gardos channel; normal and sickle erythrocytes) | rate of sickle cell painful crises ([4]; compared to placebo) | tolerability ([4]; dose of 10 mg, sickle cell disease patients) | hemoglobin ([4]; sickle cell disease patients) | markers of hemolysis ([4]; sickle cell disease patients)
 |  |  |  |  | Clc1ccccc1C(c1ccccc1)(c1ccccc1)n1ccnc1 [Clotrimazole] | specific, potent inhibitor |  |  |  | 
51 | 4 | 3.59 | 0.975 (≈ 3.02 mM) | selectively blocks | NC(=O)C(c1ccccc1)(c1ccc(F)cc1)c1ccc(F)cc1 [senicapoc, 2,2-bis(4-fluorophenyl)-2-phenylacetamide] |  | no significant improvement | well tolerated | dose-dependent increase | decrease
